Measurements: patent US8236729B2, “Herbicidal compositions” (Bayer Cropscience AG, priority 2004, dated 2012)

Test system: Lolium multiflorum
Experiment: Outdoor trial, post-emergence herbicidal action (Example 5.2)
Format: in vivo
Details: 1080 g of AS/ha, application at the 2-5-leaf stage (post-emergence), evaluation 55 days after treatment
Procedure: The herbicidal efficacy of the active compounds or active compound mixtures was scored visually by comparing the treated pots (soil) with untreated controls. The damage and development of all above-ground plant parts was recorded. Scoring was done on a percentage scale (100% action=all plants dead or not emerged; 50% action=50% of the plants and green plant parts dead or not emerged; 0% action=no discernible action=like control plot). The score figures of in any case 4 repetitions (pots) were averaged.
When applying the combinations according to the invention, herbicidal effects are frequently observed on a harmful plant species which exceed the formal total of the effects of the herbicides present when these are applied by themselves. Alternatively, it is observed in some cases that a lower application rate is required for the herbicide combination in order to achieve the same effect on a harmful plant species in comparison with the individual products. […] When the data observed already exceed the formal total of the data in the experiments with individual applications, they likewise exceed the expected value according to Colby, which is calculated using the formula below and is likewise regarded as an indication of synergism (cf. S. R. Colby; in Weeds 15 (1967) pp. 20 to 22): E=A+B−(A·B/100) […]

Glyphosate-isopropylammonium [(B2.1.2.1)]
Herbicidal action [%] against Lolium multiflorum: 18%
